The values below come from article PMC4448979 (Pharmacology Research & Perspectives, 2015).

SMILES strings stand for the structures.

What all share (type): cell-based
Experiment [1] concerns the target T1, human P2X7 receptor (HEK-hP2X7) (Homo sapiens, UniProt Q99572).
T1 sequence (Q99572 1-595): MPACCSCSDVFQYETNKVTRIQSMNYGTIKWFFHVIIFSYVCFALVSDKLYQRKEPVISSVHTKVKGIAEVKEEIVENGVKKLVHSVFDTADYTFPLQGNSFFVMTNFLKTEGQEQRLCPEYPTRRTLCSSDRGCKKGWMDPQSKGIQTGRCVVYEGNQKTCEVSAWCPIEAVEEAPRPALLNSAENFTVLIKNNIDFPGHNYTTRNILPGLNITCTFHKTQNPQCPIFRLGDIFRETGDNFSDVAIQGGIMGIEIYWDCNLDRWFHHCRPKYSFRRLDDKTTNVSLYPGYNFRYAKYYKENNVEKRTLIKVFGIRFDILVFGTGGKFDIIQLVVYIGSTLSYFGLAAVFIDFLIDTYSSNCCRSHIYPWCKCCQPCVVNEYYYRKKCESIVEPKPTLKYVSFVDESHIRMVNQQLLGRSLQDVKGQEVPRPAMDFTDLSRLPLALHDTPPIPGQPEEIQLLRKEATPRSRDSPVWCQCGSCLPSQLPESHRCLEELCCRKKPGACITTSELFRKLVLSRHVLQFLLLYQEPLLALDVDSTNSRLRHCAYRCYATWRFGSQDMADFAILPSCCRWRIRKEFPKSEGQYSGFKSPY
As to the kind of experiment: YoPro1 dye uptake, fluorescence plate reader. Particulars: agonist; HEK-hP2X7 cells.

Experiment [2] deals with T1, human P2X7 receptor (HEK-hP2X7). Nature of the experiment: YoPro1 dye uptake, fluorescence plate reader.
The target of the next experiment is T2, human P2X4 (1321N1) (Homo sapiens, UniProt Q99571).
T2 sequence (Q99571 1-388): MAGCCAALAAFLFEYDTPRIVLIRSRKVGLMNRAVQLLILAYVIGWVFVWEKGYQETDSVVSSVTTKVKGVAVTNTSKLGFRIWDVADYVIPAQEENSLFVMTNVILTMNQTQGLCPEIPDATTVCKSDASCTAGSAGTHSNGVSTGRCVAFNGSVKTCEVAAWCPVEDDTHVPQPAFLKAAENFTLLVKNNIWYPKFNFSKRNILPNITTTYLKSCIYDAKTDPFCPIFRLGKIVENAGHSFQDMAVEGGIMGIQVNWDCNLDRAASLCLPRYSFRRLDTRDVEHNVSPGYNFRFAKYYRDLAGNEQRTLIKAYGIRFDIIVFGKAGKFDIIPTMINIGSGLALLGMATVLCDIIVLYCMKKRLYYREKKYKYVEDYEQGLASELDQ
Nature of the experiment: Fluo-4 calcium flux, fluorescence plate reader. Particulars: 1321-N1, read-out: decrease in remaining activity at 10 μmol/L.

Experiment [3] deals with T3, P2X7 receptor of mouse microglia BV2 cells (Mus musculus, UniProt Q9Z1M0).
T3 sequence (Q9Z1M0 1-595): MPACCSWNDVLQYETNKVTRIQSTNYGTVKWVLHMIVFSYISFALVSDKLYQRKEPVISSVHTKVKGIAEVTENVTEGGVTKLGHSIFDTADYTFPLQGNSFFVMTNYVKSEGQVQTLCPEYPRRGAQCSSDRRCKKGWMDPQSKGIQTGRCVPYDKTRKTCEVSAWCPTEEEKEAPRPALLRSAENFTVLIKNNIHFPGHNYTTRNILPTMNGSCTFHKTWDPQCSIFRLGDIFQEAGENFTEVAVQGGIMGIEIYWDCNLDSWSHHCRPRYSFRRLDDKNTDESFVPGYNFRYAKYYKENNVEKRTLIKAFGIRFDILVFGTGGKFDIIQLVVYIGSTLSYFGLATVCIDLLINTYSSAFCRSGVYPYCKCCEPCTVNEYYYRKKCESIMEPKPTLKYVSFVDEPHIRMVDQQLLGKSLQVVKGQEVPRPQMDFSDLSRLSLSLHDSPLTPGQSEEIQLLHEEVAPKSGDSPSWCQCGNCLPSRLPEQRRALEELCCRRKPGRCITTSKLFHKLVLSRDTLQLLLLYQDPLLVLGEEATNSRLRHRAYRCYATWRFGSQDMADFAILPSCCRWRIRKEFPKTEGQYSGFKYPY
As to the kind of experiment: whole-cell patch clamp. Particulars: antagonist; 100 μmol/L BzATP; -70 mV, room temperature, pH 7.4. On the technique in general: In patch-clamp work, channel activity is measured electrically.

Experiment [4] has as its target T1, human P2X7 receptor (HEK-hP2X7). As to the kind of experiment: cytosensor, cell impedance.

For `Nc1ncnc2c1ncn2[C@@H]1O[C@H](COP(=O)(O)OP(=O)(O)OP(=O)(O)O)[C@@H](O)[C@H]1O` [ATP], the “YoPro1 dye uptake, fluorescence plate reader” value in experiment [1] is “confirmed using the YoPro1 uptake assay upon stimulation of the target cells with ATP”.

The IC50 is the concentration needed to halve the response being measured. With `O=C(NCC12CC3CC(CC(C3)C1)C2)c1cc(CCCNCCCO)ccc1Cl` [AZD9056], the half-maximal inhibitory concentration (IC50) in experiment [2] is 11.2 nM; in experiment [3] it was 1000 to 3000 nM. Moreover, the remaining activity at 10 µM on human P2X4 (1321N1) was found to be 27%. One may read the EC50 as the concentration giving half of the maximal effect. The low end stands for an effect from little substance, the high end for a need for much substance. Regarding `Nc1ncnc2c1ncn2[C@@H]1O[C@H](COP(=O)(O)OP(=O)(O)OP(=O)(O)O)[C@@H](OC(=O)c2ccc(C(=O)c3ccccc3)cc2)[C@H]1O` [BzATP, 2′, 3′–O–(4-benzoylbenzoyl)–ATP], in experiment [4], the EC50 was 9600 ± 1800 nM.
